From US20260207632A1, “C[…] THERAPY” (KINGDOM THERAPEUTICS LIMITED, priority 2022, published 2026)

Experiments:
[1] = test system: rat VPA model of autism; assay: Gastrointestinal permeability (P33), FITC-dextran in plasma, VPA rat model; type: in vivo; set-up: key to gastrointestinal permeability: +: improvement; Ø: no change
Experimental: (§1) In the first study, a sub-chronic 8-day dosing schedule was employed with the test compound CBD administered alone (10, 30 and 60 mg/kg, p.o. VPA/CBD; dose volume 5 ml/kg). Control animals were administered sterile saline (0.9% w/v, i.p.) in utero and the vehicle control (ethanol: Kolliphor HS-15:0.9% saline (1:1:18, v/v/v) p.o. VEH/VEH). The test compound and vehicle control were administered to the animals once daily for 7 days prior to, and once again on each day of behavioural assessment, 60 minutes prior to test which consisted of a battery of behavioural paradigms: P30 social play and bottle brush test, P31-32 open field exploratory behaviour. A reference positive control, the atypical antipsychotic risperidone (0.125 mg/kg, i.p., once per day for 8 days prior to and for duration of behavioural testing), was included in study one for comparison. Subsequent to behavioural analysis the effect of CBD on gastrointestinal permeability was evaluated four hours following oral administration of fluorescein isothiocyanate-labelled dextran measured in plasma on postnatal day 33. On postnatal day 34, 60 minutes post a final treatment with the test agents, animals were humanely euthanised and samples collected to evaluate inflammatory biomarkers, gastrointestinal function and histology. 5 In the second study, the sub-optimal dose of CBD (30 mg/kg, p.o.) was evaluated in combination with administration of THC at increasing concentration (0.75, 1.5 and 3 mg/kg, p.o. VPA/CBD+THC). Comparison was made to CBD administered alone at the sub-optimal and effective doses (30 and 60 mg/kg, p.o.) and to vehicle controls as per study one. Behavioural and gastrointestinal readouts were examined as per study one with terminal samples collected on the final day of the experiment.
This assay is an indirect measure of total intestinal permeability. Animals are given an oral gavage of a fluorescently labelled small molecule (FITC-dextran), and at a subsequent timepoint the difference in fluorescence pre- and post-gavage is measured in plasma (Thevaranjan et al., 2017). Prior to gavage, a 50 μl sample of blood was collected by tail vein puncture. Animals then received 500 μl of 80 mg/ml FITC dextran (4 kDa Merck Ireland) by oral gavage and four hours later a second tail vein blood sample was collected. Tail vein blood sampling is facilitated through use of local anaesthetic EMLA cream following sterilisation of the tail. Blood samples were treated with 15% v/v acid-citrate-dextrose solution as an anticoagulant (38 mM citric acid, 107 mM sodium citrate, 136 mM dextrose), then mixed thoroughly by inversion and centrifuged at 5,000 rpm for 10 minutes. The plasma supernatant was transferred to microfuge tubes stored protected from light at 4° C. Each pre- and post-test plasma sample was diluted 1:5 in 1×PBS and a 100 μl aliquot was transferred to a 96-well plate. Readings of relative fluorescence units by a spectrophotometer were measured in duplicate and averaged. Fluorescence was determined at 530 nm with excitation at 485 nm. Permeability was expressed as relative fluorescence units between the groups being compared, determined by subtracting the PBS blank fluorescence from all samples and then subtracting the post-gavage fluorescence from the pre-gavage fluorescence. Treatment groups were prepared and analysed according to a blocked design to prevent bias.

[2] = test system: rat VPA model of autism; assay: Open field behaviour (P31-32): locomotor activity, centre crossing, circling, self-grooming in VPA rat model; type: in vivo; set-up: key to open field (spontaneous LMA on day 1) / open field (habituation LMA on day 2) / centre crossing / centre time / Circling / Grooming: +: improvement; Ø: no change
Experimental: as §1
Following eight days treatment with the test compound animals were scored for locomotor activity and exploratory behaviour in two 10-minute trials within an open field arena over two days, a protocol widely used at Berand and allows to distinguish between day 1 spontaneous locomotor activity and day 2 locomotor activity following habituation (pre-exposure to the arena on day 1). Each day the animals were placed into a […] black Perspex box with 30 cm side walls, under low light and monitored via remote video capture for spontaneous activity. Linked to Ethovision XT image analysis software these videos were analysed for total distance moved and number and duration of centre zone crossings as an indication of hyperactivity and anxiety-like behaviour. Manual scoring of the videos was conducted (blinded to treatment group) to determine frequency of circling behaviour (number of 360 degree turns) and duration of self-grooming (n=8).

[3] = cohort two, CBD 30 mg/kg, THC 0 mg/kg p.o.
[4] = cohort two, CBD 60 mg/kg, THC 0 mg/kg p.o.
[5] = study one, CBD 60 mg/kg, vs VPA/VEH
[6] = cohort one, risperidone 0.125 mg/kg i.p.
[7] = study one, risperidone 0.125 mg/kg i.p.

C=C(C)[C@@H]1CCC(C)=C[C@H]1c1c(O)cc(CCCCC)cc1O [CBD, cannabidiol]
without effect: increase in FITC dextran fluorescence (gastrointestinal permeability) ([1]; study two, CBD 30 mg/kg) | increase in circling and grooming behaviour, day one ([2]; study one, CBD (10, 30 and 60 mg/kg)) | increase in circling behaviour, day 2 ([2]; study two, CBD 30 mg/kg) | increase in locomotor activity (distance travelled), day one ([2]; study two, CBD 30 mg/kg) | increase in locomotor activity (distance travelled), day two ([2]; study two, CBD 30 mg/kg) | increase in self grooming, day 2 ([2]; study two, CBD 30 mg/kg)
Ø: gastrointestinal permeability ([1]; cohort one, CBD 10 mg/kg p.o.) | gastrointestinal permeability [1, 3] | Circling ([2]; cohort one, CBD 10 mg/kg p.o.) | Grooming ([2]; cohort one, CBD 10 mg/kg p.o.) | centre crossing ([2]; cohort one, CBD 10 mg/kg p.o.) | centre time ([2]; cohort one, CBD 10 mg/kg p.o.) | open field (habituation LMA on day 2) ([2]; cohort one, CBD 10 mg/kg p.o.) | open field (spontaneous LMA on day 1) ([2]; cohort one, CBD 10 mg/kg p.o.) | Circling ([2]; cohort one, CBD 30 mg/kg p.o.) | Grooming ([2]; cohort one, CBD 30 mg/kg p.o.) | centre crossing ([2]; cohort one, CBD 30 mg/kg p.o.) | centre time ([2]; cohort one, CBD 30 mg/kg p.o.) | open field (habituation LMA on day 2) ([2]; cohort one, CBD 30 mg/kg p.o.) | open field (spontaneous LMA on day 1) ([2]; cohort one, CBD 30 mg/kg p.o.) | centre crossing ([2]; cohort one, CBD 60 mg/kg p.o.) | centre time ([2]; cohort one, CBD 60 mg/kg p.o.) | Grooming [2, 3] | centre crossing [2, 3] | centre time [2, 3] | open field (habituation LMA on day 2) [2, 3] | open field (spontaneous LMA on day 1) [2, 3]
reversed: increase in self grooming, day 2 ([2]; study one, CBD 60 mg/kg) | increase in self grooming, day 2 ([2]; study two, CBD 60 mg/kg)
significantly prevented: increase in FITC dextran fluorescence (gastrointestinal permeability) ([1]; study one, CBD 30 mg/kg, vs VPA/VEH) | increase in FITC dextran fluorescence (gastrointestinal permeability) [1, 5] | increase in FITC dextran fluorescence (gastrointestinal permeability) ([1]; study two, CBD 60 mg/kg) | increase in locomotor activity (distance travelled), day one [2, 5] | increase in locomotor activity (distance travelled), day two [2, 5] | increase in circling, day one ([2]; study two, CBD 30 mg/kg) | increase in circling, day one ([2]; study two, CBD 60 mg/kg) | increase in locomotor activity (distance travelled), day one ([2]; study two, CBD 60 mg/kg) | increase in locomotor activity (distance travelled), day two ([2]; study two, CBD 60 mg/kg)
+: gastrointestinal permeability ([1]; cohort one, CBD 30 mg/kg p.o.) | gastrointestinal permeability ([1]; cohort one, CBD 60 mg/kg p.o.) | gastrointestinal permeability [1, 4] | Circling ([2]; cohort one, CBD 60 mg/kg p.o.) | Grooming ([2]; cohort one, CBD 60 mg/kg p.o.) | open field (habituation LMA on day 2) ([2]; cohort one, CBD 60 mg/kg p.o.) | open field (spontaneous LMA on day 1) ([2]; cohort one, CBD 60 mg/kg p.o.) | Circling [2, 3] | Circling [2, 4] | Grooming [2, 4] | centre crossing [2, 4] | centre time [2, 4] | open field (habituation LMA on day 2) [2, 4] | open field (spontaneous LMA on day 1) [2, 4]
significantly attenuated: increase in circling behaviour, day 2 ([2]; study one, CBD 60 mg/kg) | increase in circling behaviour, day 2 ([2]; study two, CBD 60 mg/kg)

Cc1nc2n(c(=O)c1CCN1CCC(c3noc4cc(F)ccc34)CC1)CCCC2 [Risperidone, risperidone]
Ø: gastrointestinal permeability [1, 6] | Circling [2, 6] | Grooming [2, 6] | centre crossing [2, 6] | centre time [2, 6]
+: open field (habituation LMA on day 2) [2, 6] | open field (spontaneous LMA on day 1) [2, 6]
without effect: increase in FITC dextran fluorescence (gastrointestinal permeability) [1, 7]
significantly reduced: increased locomotor activity, day two [2, 7] | locomotor hyperactivity, day one [2, 7]
did not reach significance: circling and self-grooming, day one or two [2, 7]
